According to patent US7375058B2, “Herbicidal mixtures based on 3-phenyluracils” (priority 2002, dated 2008):

Assays:
GALAP = assay: Greenhouse post-emergence herbicidal action against GALAP; assay type: in vivo, Galium aparine; conditions: 21 days
Excerpt: (§1) For the post-emergence treatment, the test plants were first grown to a height of 3 to 20 cm, depending on the plant habit, and only then treated. Here, the herbicidal compositions were suspended or emulsified in water as distribution medium and sprayed using finely distributing nozzles
(§2) The respective components A and B and/or C were formulated as 10% by weight strength emulsion concentrate and introduced to the spray liquor with the amount of solvent system used for applying the active compound. In the examples, the solvent used was water.
(§3) The test period extended over 21 days. During this time, the plants were tended, and their response to the treatments with active compound was evaluated.
(§4) The evaluation for the damage caused by the chemical compositions was carried out using a scale from 0 to 100%, compared to the untreated control plants. Here, 0 means no damage and 100 means complete destruction of the plants.
(§5) In the examples below, the value E which is to be expected if the activity of the individual compounds is just additive was calculated using the method of S. R. Colby (1967) “Calculating synergistic and antagonistic responses of herbicide combinations”, Weeds 15, p. 22 ff. E=X+Y−([…]) where • X=effect in percent using active compound A at an application rate a; • Y=effect in percent using active compound B at an application rate b; • E=expected effect (in %) of A+B at application rates a+b.
(§6) If the observed effect is higher than the value E calculated according to Colby, a synergistic effect is present.

AMARE = assay: Greenhouse post-emergence herbicidal action against AMARE; assay type: in vivo, Amaranthus retroflexus
Excerpt: as §1, §2, §3, §4, §5, §6

POLPE = assay: Greenhouse post-emergence herbicidal action against POLPE; assay type: in vivo, Polygonum persicaria; conditions: 21 days
Excerpt: as §1, §2, §3, §4, §5, §6

BIDPI = assay: Greenhouse post-emergence herbicidal action against BIDPI; assay type: in vivo, Bidens pilosa
Excerpt: as §1, §2, §3, §4, §5, §6

ABUTH = assay: Greenhouse post-emergence herbicidal action against ABUTH; assay type: in vivo, Abutilon theophrasti; conditions: 21 days
Excerpt: as §1, §2, §3, §4, §5, §6

AVEFA = assay: Greenhouse post-emergence herbicidal action against AVEFA; assay type: in vivo, Avena fatua
Excerpt: as §1, §2, §3, §4, §5, §6

BRAPL = assay: Greenhouse post-emergence herbicidal action against BRAPL; assay type: in vivo, Brachiaria plantaginea; conditions: 21 days
Excerpt: as §1, §2, §3, §4, §5, §6

ECHCG = assay: Greenhouse post-emergence herbicidal action against ECHCG; assay type: in vivo, Echinochloa crus-galli; conditions: 21 days
Excerpt: as §1, §2, §3, §4, §5, §6

TRZAW = assay: Pre-emergence safener action (crop damage) in TRZAW; assay type: in vivo, Triticum aestivum (Winter wheat); conditions: 21 days
Procedure: as §4
(§7) In the examples below, the mixtures were applied by the pre-emergence method. To this end, the test plants were initially sown and covered with a thin layer of soil. Afterward (i.e. prior to the germination of the test plants), the mixtures according to the invention were sprayed onto the soil as an aqueous spray liquor at the stated application rate. As in the post-emergence method described above, the test period was 21 days. The damage was then evaluated as described above using a scale from 0 to 100% damage in comparison to untreated control plants (0% damage).
(§8) A safener action is present if the damage to the crop plant caused by using a mixture according to the invention which contains a safener C) is less than the damage caused when active compound A or active compounds A and B are used without safener.

POAPR = assay: Pre-emergence herbicidal action against POAPR; assay type: in vivo, Poa pratensis; conditions: 21 days
Procedure: as §4, §7, §8

TRFPR = assay: Pre-emergence herbicidal action against TRFPR; assay type: in vivo, Trifolium pratense; conditions: 21 days
Procedure: as §4, §7, §8

COMBE = assay: Greenhouse post-emergence herbicidal action against COMBE; assay type: in vivo, Commelina benghalensis; conditions: 21 days
Excerpt: as §1, §2, §3, §4, §5, §6

ALOMY = assay: Greenhouse post-emergence herbicidal action against ALOMY; assay type: in vivo, Alopecurus myosuroides; conditions: 21 days
Excerpt: as §1, §2, §3, §4, §5, §6

[1] = I.1 0.49 g/ha and/or b14.1 7.81 g/ha
[2] = I.1 0.98 g/ha and/or b14.1 15.63 g/ha
[3] = I.1 1.95 g/ha and/or b10.1 125 g/ha
[4] = I.1 3.91 g/ha and/or b10.1 250 g/ha
[5] = application rate g/ha: I.7 1.95, b3.2 62.5
[6] = application rate g/ha: I.7 3.91, b3.2 125
[7] = application rate g/ha: I.7 1.95, b13.1 500
[8] = application rate g/ha: I.7 3.91, b13.1 1000
[9] = I.7 200 g/ha and/or c.1 200 g/ha
[10] = I.7 400 g/ha and/or c.1 400 g/ha
[11] = application rate g/ha: I.8 0.98, b5.1 7.81
[12] = application rate g/ha: I.8 1.95, b5.1 15.63
[13] = I.8 200 g/ha and/or c.1 200 g/ha
[14] = I.8 400 g/ha and/or c.1 400 g/ha

With `CN(C)S(=O)(=O)NC(=O)c1cc(-n2c(=O)cc(C(F)(F)F)n(C)c2=O)c(F)cc1Cl` [I.1] the “Herbicidal action against GALAP found” value (GALAP; application rate g/ha: I.1 1.95, b1.1 62.5) was 20%, the “Herbicidal action against GALAP found” value (GALAP; application rate g/ha: I.1 1.95, b1.3 + c.1 62.5 + 67.5) was 50% and the “Herbicidal action against GALAP found” value (GALAP; application rate g/ha: I.1 3.91, b1.1 125) was 20%. For the same compound, the “Herbicidal action against GALAP found” value (GALAP; application rate g/ha: I.1 3.91, b1.3 + c.1 125 + 135.9) was 60%, the “Herbicidal action against AMARE found” value (AMARE; [1]) was 60% and the “Herbicidal action against AMARE found” value (AMARE; [2]) was 60%. For the same compound, the “Herbicidal action against POLPE found” value (POLPE; application rate g/ha: I.1 0.49, b4.1 0.98) was 10%, the “Herbicidal action against POLPE found” value (POLPE; application rate g/ha: I.1 0.98, b4.1 1.95) was 25% and the “Herbicidal action against BIDPI found” value (BIDPI; [1]) was 20%. The “Herbicidal action against BIDPI found” value (BIDPI; [2]) was 30%, the “Herbicidal action against BIDPI found” value (BIDPI; [3]) was 40% and the “Herbicidal action against BIDPI found” value (BIDPI; [4]) was 50%. For the same compound, the “Herbicidal action against ABUTH found” value (ABUTH; application rate g/ha: I.1 1.95, b1.2 31.25) was 20%, the “Herbicidal action against ABUTH found” value (ABUTH; application rate g/ha: I.1 3.91, b1.2 62.5) was 30% and the “Herbicidal action against AVEFA found” value (AVEFA; 21 days, application rate g/ha: I.1 0.98, b9.1 125) was 5%. The “Herbicidal action against AVEFA found” value (AVEFA; 21 days, application rate g/ha: I.1 1.95, b9.1 250) was 10%, the “Herbicidal action against AVEFA found” value (AVEFA; [3]) was 10% and the “Herbicidal action against AVEFA found” value (AVEFA; [4]) was 10%.

With `CC(C)N(C)S(=O)(=O)NC(=O)c1cc(-n2c(=O)cc(C(F)(F)F)n(C)c2=O)c(F)cc1Cl` [I.7] the “Herbicidal action against BRAPL found” value (BRAPL; [5]) was 40%, the “Herbicidal action against BRAPL found” value (BRAPL; [6]) was 60% and the “Herbicidal action against ECHCG found” value (ECHCG; [5]) was 0%. For the same compound, the “Herbicidal action against ECHCG found” value (ECHCG; [6]) was 30%, the “Herbicidal action against POLPE found” value (POLPE; application rate g/ha: I.7 1.95, b3.1 62.5) was 0% and the “Herbicidal action against POLPE found” value (POLPE; application rate g/ha: I.7 1.95, b7.1 250) was 0%. The “Herbicidal action against POLPE found” value (POLPE; [7]) was 0%, the “Herbicidal action against POLPE found” value (POLPE; application rate g/ha: I.7 3.91, b3.1 125) was 25% and the “Herbicidal action against POLPE found” value (POLPE; application rate g/ha: I.7 3.91, b7.1 500) was 25%. The “Herbicidal action against POLPE found” value (POLPE; [8]) was 25%, the “Damage to crop plant TRZAW” value (TRZAW; [9]) was 10% and the “Damage to crop plant TRZAW” value (TRZAW; [10]) was 35%. For the same compound, the “Herbicidal action against POAPR” value (POAPR; [9]) was 98%, the “Herbicidal action against POAPR” value (POAPR; [10]) was 98% and the “Herbicidal action against ABUTH found” value (ABUTH; application rate g/ha: I.7 0.98, b3.3 31.25) was 0%. The “Herbicidal action against ABUTH found” value (ABUTH; application rate g/ha: I.7 0.98, b3.4 31.25) was 0%, the “Herbicidal action against ABUTH found” value (ABUTH; application rate g/ha: I.7 1.95, b3.3 62.5) was 30% and the “Herbicidal action against ABUTH found” value (ABUTH; application rate g/ha: I.7 1.95, b3.4 62.5) was 30%. The “Herbicidal action against TRFPR” value (TRFPR; [9]) was 100%, the “Herbicidal action against TRFPR” value (TRFPR; [10]) was 100% and the “Herbicidal action against COMBE found” value (COMBE; [7]) was 0%. The “Herbicidal action against COMBE found” value (COMBE; [8]) was 0%, the “Herbicidal action against AVEFA found” value (AVEFA; 21 days, application rate g/ha: I.7 1.95, b3.1 62.5) was 10% and the “Herbicidal action against AVEFA found” value (AVEFA; 21 days, application rate g/ha: I.7 1.95, b6.1 125) was 10%. The “Herbicidal action against AVEFA found” value (AVEFA; 21 days, application rate g/ha: I.7 1.95, b7.1 250) was 10%, the “Herbicidal action against AVEFA found” value (AVEFA; 21 days, application rate g/ha: I.7 3.91, b3.1 125) was 15% and the “Herbicidal action against AVEFA found” value (AVEFA; 21 days, application rate g/ha: I.7 3.91, b6.1 250) was 15%. The “Herbicidal action against AVEFA found” value (AVEFA; 21 days, application rate g/ha: I.7 3.91, b7.1 500) was 15%.

`CC(C)N(C)S(=O)(=O)NC(=O)c1cc(-n2c(=O)cc(C(F)(F)F)n(N)c2=O)c(F)cc1Cl` [I.8] was tested, and the “Herbicidal action against BRAPL found” value (BRAPL; [11]) was 30%, the “Herbicidal action against BRAPL found” value (BRAPL; [12]) was 40% and the “Herbicidal action against ECHCG found” value (ECHCG; application rate g/ha: I.8 1.95, b5.2 31.25) was 20%. The “Herbicidal action against ECHCG found” value (ECHCG; application rate g/ha: I.8 3.91, b5.2 62.5) was 40%, the “Herbicidal action against POLPE found” value (POLPE; [11]) was 10% and the “Herbicidal action against POLPE found” value (POLPE; [12]) was 20%. The “Herbicidal action against BIDPI found” value (BIDPI; 21 days, application rate g/ha: I.8 0.49, b2.2 7.81) was 10%, the “Herbicidal action against BIDPI found” value (BIDPI; 21 days, application rate g/ha: I.8 0.98, b2.2 15.63) was 20% and the “Damage to crop plant TRZAW” value (TRZAW; [13]) was 30%. For the same compound, the “Damage to crop plant TRZAW” value (TRZAW; [14]) was 65%, the “Herbicidal action against POAPR” value (POAPR; [13]) was 98% and the “Herbicidal action against POAPR” value (POAPR; [14]) was 100%. The “Herbicidal action against TRFPR” value (TRFPR; [13]) was 100%, the “Herbicidal action against TRFPR” value (TRFPR; [14]) was 100% and the “Herbicidal action against ALOMY found” value (ALOMY; application rate g/ha: I.8 0.49, b2.1 7.81) was 5%. For the same compound, the “Herbicidal action against ALOMY found” value (ALOMY; application rate g/ha: I.8 0.98, b2.1 15.63) was 10%.
